Measured values published in ChEMBL document CHEMBL1201862, “PubChem BioAssay data set” (2004).
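Protocol summary: plate cells (96-well), add compound at 5 concentrations, incubate 48 h, interpolate endpoints linearly. At the GI50, growth is halved.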 Active and inactive are the calls of the source. Cut-off read from the data, not from the text of the source: active = GI50 up to about 1.1 µM and inactive = higher.

Columns and labels:
Assay in all cases: NCI tumour cell line growth inhibition, 48 h
[1] = tested on: SF-268
[2] = tested on: HL-60
[3] = tested on: SK-OV-3
[4] = tested on: SF-295
[5] = tested on: OVCAR-8
[6] = tested on: OVCAR-5
[7] = tested on: UACC-62
[8] = tested on: UACC-257
[9] = tested on: CCRF-CEM
[10] = tested on: HOP-92
[11] = tested on: CAKI-1
[12] = tested on: MOLT-4
[13] = tested on: UO-31
[14] = tested on: SR
[15] = tested on: SNB-75
[16] = tested on: NCI-H522
[17] = tested on: TK-10
[18] = tested on: Malme-3M
[19] = tested on: K562
[20] = tested on: M14
[21] = tested on: SK-MEL-5
[22] = tested on: LXFL 529
[23] = tested on: U-251
[24] = tested on: IGROV-1
[25] = tested on: KM12
[26] = tested on: EKVX
[27] = tested on: SNB-19
[28] = tested on: SW-620
[29] = tested on: 786-0
[30] = tested on: HT-29
[31] = tested on: NCI-H226
[32] = tested on: DMS-273
[33] = tested on: RPMI-8226
[34] = tested on: SF-539
[35] = tested on: NCI-H23
[36] = tested on: SNB-78
[37] = tested on: A549
[38] = tested on: OVCAR-4
[39] = tested on: KM-20L2
[40] = tested on: HCT-15
[41] = tested on: LOX IMVI
[42] = tested on: SK-MEL-2
[43] = tested on: A498
[44] = tested on: OVCAR-3
[45] = tested on: HCT-116
[46] = tested on: M19-MEL
[47] = tested on: HOP-62
[48] = tested on: NCI-H460
[49] = tested on: RXF 393
[50] = tested on: SN12C
[51] = tested on: COLO 205
[52] = tested on: HOP-18
[53] = tested on: DMS-114
[54] = tested on: HCC 2998
[55] = tested on: MDA-MB-435
[56] = tested on: SK-MEL-28
[57] = tested on: MDA-N
[58] = tested on: BT-549
[59] = tested on: NCI/ADR-RES
[60] = tested on: MDA-MB-231
[61] = tested on: T47D
[62] = tested on: Hs-578T
[63] = tested on: ACHN
[64] = tested on: MCF7
[65] = tested on: DU-145
[66] = tested on: PC-3

CCN(CC)c1ccc(/N=N\c2ccc(-c3nc4ccc[n+](C)c4s3)cc2)cc1
GI50 [1]: 6.07 µM (inactive)
GI50 [2]: 1.77 µM (inactive)
GI50 [3]: 16.1 µM (inactive)
GI50 [4]: 17.8 µM (inactive)
GI50 [5]: 8.57 µM (inactive)
GI50 [6]: 17.1 µM (inactive)
GI50 [7]: 7.59 µM (inactive)
GI50 [8]: 5.01 µM (inactive)
GI50 [9]: 3.05 µM (inactive)
GI50 [10]: 10.6 µM (inactive)
GI50 [11]: 19.7 µM (inactive)
GI50 [12]: 2.84 µM (inactive)
GI50 [13]: 22.8 µM (inactive)
GI50 [14]: 4.5 µM (inactive)
GI50 [15]: 9.4 µM (inactive)
GI50 [16]: 3.06 µM (inactive)
GI50 [17]: 20 µM (inactive)
GI50 [18]: 6.11 µM (inactive)
GI50 [19]: 2.4 µM (inactive)
GI50 [20]: 13.2 µM (inactive)
GI50 [21]: 5.48 µM (inactive)
GI50 [22]: 3.24 µM (inactive)
GI50 [23]: 4.07 µM (inactive)
GI50 [24]: 8.18 µM (inactive)
GI50 [25]: 2.76 µM (inactive)
GI50 [26]: 24 µM (inactive)
GI50 [27]: 5.3 µM (inactive)
GI50 [28]: 4.75 µM (inactive)
GI50 [29]: 17.1 µM (inactive)
GI50 [30]: 5.25 µM (inactive)
GI50 [31]: 6.5 µM (inactive)
GI50 [32]: 3.65 µM (inactive)
GI50 [33]: 2.79 µM (inactive)
GI50 [34]: 11 µM (inactive)
GI50 [35]: 5.5 µM (inactive)
GI50 [36]: 4.37 µM (inactive)
GI50 [37]: 4.2 µM (inactive)
GI50 [38]: 6.5 µM (inactive)
GI50 [39]: 6.78 µM (inactive)
GI50 [40]: 16.7 µM
GI50 [41]: 0.423 µM (active)
GI50 [42]: 7.83 µM (inactive)
GI50 [43]: 13.4 µM (inactive)
GI50 [44]: 3.53 µM (inactive)
GI50 [45]: 3.53 µM (inactive)
GI50 [46]: 3.55 µM (inactive)
GI50 [47]: 17.3 µM (inactive)
GI50 [48]: 4.01 µM (inactive)
GI50 [49]: > 10 µM (inactive)
GI50 [50]: 4.29 µM (inactive)
GI50 [51]: 3.24 µM (inactive)
GI50 [52]: 16.7 µM (inactive)

CC1[C@@H]2CC=C3[C@H]4CCC5Cc6nc7c(nc6C[C@@]5(C)C4CC(=O)[C@]32CO[C@]12OC(C)(C)CC2O)CC1CC[C@@H]2C3=C[C@H]4O[C@@]5(O[C@@](C)(CO)C[C@@H]5O)C(C)[C@@]4(O)[C@]3(C)[C@@H](O)CC2[C@]1(C)C7 (some centres undefined)
GI50 [16]: 0.00121 µM (active)
GI50 [17]: 0.034 µM (active)
GI50 [31]: 0.00273 µM (active)
GI50 [53]: 0.000172 µM (active)
GI50 [32]: 0.000105 µM (active)
GI50 [35]: 0.0055 µM (active)
GI50 [43]: 0.00143 µM (active)
GI50 [54]: 0.0955 µM (active)

Cn1ccnc1Sc1ccc(/C=N/NC(=O)c2ccccc2O)cc1[N+](=O)[O-]
GI50 [1]: 48.8 µM (inactive)
GI50 [2]: 44.9 µM (inactive)
GI50 [3]: > 100 µM (inactive)
GI50 [4]: > 100 µM (inactive)
GI50 [5]: > 100 µM (inactive)
GI50 [6]: > 100 µM (inactive)
GI50 [7]: 86.1 µM (inactive)
GI50 [8]: > 100 µM (inactive)
GI50 [9]: 37.6 µM (inactive)
GI50 [10]: > 100 µM (inactive)
GI50 [11]: 72.8 µM (inactive)
GI50 [12]: 0.428 µM (active)
GI50 [13]: 79.1 µM (inactive)
GI50 [14]: 2.27 µM (inactive)
GI50 [15]: > 100 µM (inactive)
GI50 [16]: 41.7 µM (inactive)
GI50 [17]: > 100 µM (inactive)
GI50 [55]: 57 µM (inactive)
GI50 [18]: 40.9 µM (inactive)
GI50 [19]: 0.298 µM (active)
GI50 [56]: > 100 µM (inactive)
GI50 [20]: > 100 µM (inactive)
GI50 [21]: 55.7 µM (inactive)
GI50 [57]: 61.5 µM (inactive)
GI50 [58]: 89.7 µM (inactive)
GI50 [23]: 66.4 µM (inactive)
GI50 [24]: 35.1 µM (inactive)
GI50 [25]: > 100 µM (inactive)
GI50 [26]: 94 µM (inactive)
GI50 [27]: > 100 µM (inactive)
GI50 [28]: > 100 µM (inactive)
GI50 [29]: 61.4 µM (inactive)
GI50 [30]: 33.7 µM (inactive)
GI50 [59]: > 100 µM (inactive)
GI50 [60]: > 100 µM (inactive)
GI50 [31]: > 100 µM (inactive)
GI50 [61]: 80.2 µM (inactive)
GI50 [33]: 0.0723 µM (active)
GI50 [34]: 60.7 µM (inactive)
GI50 [35]: 56.9 µM (inactive)
GI50 [62]: 92.5 µM (inactive)
GI50 [37]: > 100 µM (inactive)
GI50 [38]: 72.6 µM (inactive)
GI50 [40]: 39.6 µM
GI50 [63]: > 100 µM (inactive)
GI50 [41]: 65.2 µM (inactive)
GI50 [42]: 37.8 µM (inactive)
GI50 [43]: > 100 µM (inactive)
GI50 [64]: 84.3 µM (inactive)
GI50 [44]: > 100 µM (inactive)
GI50 [45]: 70.1 µM (inactive)
GI50 [65]: > 100 µM (inactive)
GI50 [47]: 73.6 µM (inactive)
GI50 [48]: 69.5 µM (inactive)
GI50 [49]: > 100 µM (inactive)
GI50 [66]: 56.9 µM (inactive)
GI50 [54]: 96.4 µM (inactive)
GI50 [50]: 55 µM (inactive)
GI50 [51]: 22.2 µM (inactive)
